Here are results for 14 compounds from patent publication US20050256161A1, “Melanin concentrating hormone receptor antagonists” (priority 2003, published 2005).

One assay concerns the target T1, human MCH receptor (Homo sapiens, UniProt Q99705).
T1 construct: expressed in transfected cells
The assay can be described thus: hMCH FLIPR calcium mobilization functional assay. Type of assay: cell-based.

The target of assay [1] is T2, rat MCH 1 receptor (rMCH1R) (Rattus norvegicus, UniProt P97639).
T2 construct: expressed in transfected cells; host or cells: HEK 293 (membrane preparation)
The assay can be described thus: Ligand binding assay (125I native-MCH), rMCH. To be noted: rMCH1R expressed in HEK 293, membranes, 0.2 nM 125I native-MCH. Here is the method:
(§1) Human embryonic kidney cells (293 total) expressing either human, rat, or mouse MCH receptor were harvested from 150 mm culture dishes using PBS. Spinning at 1500 rpm for 2 minutes initially pelleted cells. The resulting pellet was then homogenized in 15 mL ice cold sucrose buffer (25 mM HEPES, 0.3 M sucrose, pH 7.4) with a motorized, glass fitted, Teflon® homogenizer. The homogenate was centrifuged at 48,000×g at 4° C. for 10 minutes, resuspended in 15 mL assay buffer (25 mM HEPES, 10 mM MgCl2, 0.2% BSA, 0.1 mg/mL STI, 0.1 mg/mL Pefabloc®, 1 μM Phosphoramidon, pH 7.4) with a Tissue-Tearor® (Biospec Products) and centrifuged again at 48,000×g for 10 minutes. The pellet was homogenized for a third time in 15 mL assay buffer using the Tissue-Tearor® and again centrifuged at 48,000×g for 10 minutes. The resulting pellet was resuspended in assay buffer at a wet weight concentration of 10-20 mg/mL.
(§2) Binding assays were determined as described below using mouse, rat or human MCH 1 receptors (mMCH1R, rMCH1R, and hMCH1R, respectively) expressed in HEK 293; IC50 values were calculated.
(§3) Binding assays were performed in 96-well U-bottom plates. Membranes (100 μg tissue) were incubated at 30° C. for 90 minutes in assay buffer with various peptides in the presence of 0.2 nM 125I native-MCH (Perkin-Elmer Life Sciences, Boston, Mass.) in 100 μL total volume. Non-specific binding was assessed in the presence of 1 μM cold native-MCH. The reaction was terminated by rapid filtration through Unfilter-96 GF/C glass fiber filter plates (FilterMate® 196 Harvester, Packard Instrument Co., Meriden, Conn.) pre-soaked in PBS/0.5% BSA, followed by three washes with 300 μL ice-cold water. Bound radioactivity was determined using a TopCount® microplate scintillation and luminescence counter (Packard Instrument Co., Meriden, Conn.). Nonlinear regression analyses of drug concentration curves were performed using GraphPad Prism® (GraphPad Software, Inc., San Diego, Calif.).

The target of a further assay is T3, rat MCH1 receptor (Rattus norvegicus, UniProt P97639).
T3 construct: expressed in transfected cells
Description: rMCH FLIPR calcium mobilization functional assay. It counts as cell-based. To be noted: CHOK1-Gqi cells. Here is the method: Pharmacological analyses were conducted using either a HT-PS100 device (Axiom Biotechnologies, San Diego, Calif.), which provides high-resolution dose-response fluorometric measurements of [Ca^++]i mobilization, or using a FLIPR® device (Molecular Devices, Sunnyvale, Calif.).
Materials: Pharmacological analysis was conducted using a FLIPR® device (Molecular Devices, Sunnyvale, Calif.). CHOK1-Gqi cells were stably transfected with the rat MCH1 receptor and maintained under G418 antibiotic pressure. FLIPR® assay buffer consisted of phenol red-free DMEM+2.5 mM probenecid. MCH peptide (Amgen, Inc.) was reconstituted in assay buffer and served as the positive agonist control for all experiments. Test compounds were prepared as 10 mM stocks in 100% DMSO and diluted to a top end working concentration of 10 μM in 96 well black, flat bottom, collagen-I coated plates (Becton Dickinson, Bedford, Mass.).
Methods: CHOK1-Gqi cells stably expressing MCH1R were maintained in Dulbeco's modified Eagle's medium (GIBCO/Life Technologies, Rockville, Md.) supplemented with 2 mM glutamine and 10% dialyzed fetal bovine serum (HyClone, Logan, Utah) at 37° C., 5% CO2. Cells were harvested by 10′ treatment with Versene (GIBCO/Life Technologies) followed by trituration, washing twice with cold (4° C.) hybridoma medium (Serum/Protein free, with L-glutamine, sodium bicarbonate, MOPS buffer) (Sigma-Aldrich Corp, St. Louis, Mo.) and replated onto 96 well black, flat bottom, collagen-I coated plates to a density of 10,000 cells/well. The cells were then loaded with the fluorescent calcium indicator Fura-2 (Molecular Probes, Eugene, Oreg.) at 1.6 μM for 60′ at room temperature. The loaded cells were then washed twice with 90 μl/well of wash buffer (1×HBSS, 20 mM HEPES, 2.5 mM probenecid).
Receptor-stimulated intracellular calcium responses were detected using FLIPR® by monitoring increases in the Fura-2 fluorescence response.
Test compounds were screened for MCH1R activity in the FLIPR® for both agonist and antagonist action. Agonist mode challenges were conducted at a maximum gradient concentration of 1 μM. Antagonist activity was tested by 10 min pre-incubation of cells at a compound concentration of defined to be 300× the EC50 of MCH (typically 1 μM), with subsequent introduction of MCH at a concentration 5-fold of EC50 as determined in preliminary experiments.
Schild experiments were conducted on the FLIPR® for selected compounds by co-administering antagonist compounds together with MCH peptide. Several fixed concentrations of antagonist compounds were prepared in 10-fold increments, and presented to the cells in a gradient of increasing MCH concentration. Values for compound pA2 were calculated by linear regression of MCH EC50s as a function of antagonist concentration.

For assay [2], the target named is T4, human MCH 1 receptor (hMCH1R) (Homo sapiens, UniProt Q99705).
T4 construct: expressed in transfected cells; host or cells: HEK 293 (membrane preparation)
Description: Ligand binding assay (125I native-MCH), hMCH. As to conditions: hMCH1R expressed in HEK 293, membranes, 0.2 nM 125I native-MCH. The procedure:
as §1, §2, §3

T2 sequence (P97639 whole entry): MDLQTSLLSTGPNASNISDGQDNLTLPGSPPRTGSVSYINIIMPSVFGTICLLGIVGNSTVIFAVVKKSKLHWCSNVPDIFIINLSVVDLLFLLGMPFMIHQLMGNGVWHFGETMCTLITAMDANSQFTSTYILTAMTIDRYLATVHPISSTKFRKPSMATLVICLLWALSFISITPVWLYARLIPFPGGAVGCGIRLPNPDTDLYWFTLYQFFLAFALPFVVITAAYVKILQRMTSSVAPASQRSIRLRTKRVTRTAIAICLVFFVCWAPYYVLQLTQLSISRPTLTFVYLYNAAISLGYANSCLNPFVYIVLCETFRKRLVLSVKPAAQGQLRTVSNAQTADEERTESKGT
T3 sequence (P97639 whole entry): as above
T1 sequence (Q99705 whole entry): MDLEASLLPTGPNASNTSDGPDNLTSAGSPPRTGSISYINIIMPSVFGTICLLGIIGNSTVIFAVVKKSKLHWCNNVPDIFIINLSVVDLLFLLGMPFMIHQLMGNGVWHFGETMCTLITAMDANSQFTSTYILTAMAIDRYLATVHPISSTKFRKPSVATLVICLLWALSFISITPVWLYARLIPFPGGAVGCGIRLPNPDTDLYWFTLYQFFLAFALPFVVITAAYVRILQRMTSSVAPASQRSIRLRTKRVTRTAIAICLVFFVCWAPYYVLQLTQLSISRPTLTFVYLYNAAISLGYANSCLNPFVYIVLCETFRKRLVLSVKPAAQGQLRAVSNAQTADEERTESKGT
T4 sequence (Q99705 whole entry): as above

On to `O=C(Nc1cccc(F)c1)Nc1cc(C(=O)NCCN2CCCC2)ccc1Oc1ccc(F)cc1` [Compound 54, 4-(4-fluorophenoxy)-3-[3-(3-fluorophenyl)ureido]-N-(2-pyrrolidin-1-yl-ethyl)benzamide], for which the inhibitory constant (Ki) at human MCH receptor (threshold 100 μM or less) and at rat MCH1 receptor (threshold 100 μM or less) was at most 100 µM throughout. The results for the IC50 in assay [1] (threshold 100 nM or less) and in assay [1] (threshold 100 μM or less) were at most 0.1 µM and at most 100 µM, respectively.

For `Cc1ccc(Oc2ccc(C(=O)NCCN3CCCC3)cc2NC(=O)NCc2ccccc2)cc1C` [Compound 6, 4-[(3,4-dimethylphenyl)oxy]-3-({[(phenylmethyl)amino]carbonyl}amino)-N-(2-(1-pyrrolidinyl)ethyl)benzamide], the half-inhibitory concentration (IC50) in assay [2] (threshold 100 nM or less) is at most 0.1 µM; in assay [2] (threshold 100 μM or less) it was at most 100 µM. Also, the Ki on human MCH receptor (threshold 100 nM or less) is at most 0.1 µM; on human MCH receptor (threshold 100 μM or less), at most 100 µM; at rat MCH1 receptor (threshold 100 nM or less), at most 0.1 µM; at rat MCH1 receptor (threshold 100 μM or less), at most 100 µM.

In the case of `Cc1ccc(Oc2ccc(C(=O)NCCN3CCCC3)cc2NC(=O)Nc2c(C)cccc2C)cc1C` [Compound 35, 4-(3,4-dimethylphenoxy)-3-[3-(2,6-dimethylphenyl)ureido]-N-(2-pyrrolidin-1-yl-ethyl)benzamide], the IC50 in assay [2] (threshold 100 μM or less) and in assay [1] (threshold 100 μM or less) was at most 100 µM each time. Also, the Ki on human MCH receptor (threshold 100 nM or less) was at most 0.1 µM; at human MCH receptor (threshold 100 μM or less), at most 100 µM; on rat MCH1 receptor (threshold 100 μM or less), at most 100 µM.

As for `Cc1ccc(Oc2ccc(C(=O)NCCN3CCCC3)cc2NC(=O)Nc2ccccc2)cc1C` [Compound 1, 4-[(3,4-dimethylphenyl)oxy]-3-{[(phenylamino)carbonyl]amino}-N-(2-(1-pyrrolidinyl)ethyl)benzamide], the IC50 in assay [2] (threshold 100 nM or less) is at most 0.1 µM; in assay [2] (threshold 100 μM or less) it was at most 100 µM; in assay [1] (threshold 100 nM or less), at most 0.1 µM; in assay [1] (threshold 100 μM or less), at most 100 µM. Also, the Ki at human MCH receptor (threshold 100 nM or less) was at most 0.1 µM; at human MCH receptor (threshold 100 μM or less), at most 100 µM; on rat MCH1 receptor (threshold 100 nM or less), at most 0.1 µM; on rat MCH1 receptor (threshold 100 μM or less), at most 100 µM.

As to `O=C(Nc1cccc(F)c1)Nc1cc(C(=O)NCCN2CCCC2)ccc1Oc1ccc(F)c(F)c1` [Compound 53, 4-(3,4-difluorophenoxy)-3-[3-(3-fluorophenyl)ureido]-N-(2-pyrrolidin-1-yl-ethyl)benzamide], the Ki on human MCH receptor (threshold 100 μM or less) and at rat MCH1 receptor (threshold 100 μM or less) was at most 100 µM each time. Further, the IC50 in assay [1] (threshold 100 nM or less) is at most 0.1 µM; in assay [1] (threshold 100 μM or less), at most 100 µM.

In the case of `Cc1ccc(Oc2ccc(C(=O)NCCN3CCCC3)cc2NC(=O)Nc2cccc(F)c2)cc1` [Compound 56, 3-[3-(3-fluorophenyl)ureido]-N-(2-pyrrolidin-1-yl-ethyl)-4-p-tolyloxybenzamide], the figures for the Ki at human MCH receptor (threshold 100 nM or less), on human MCH receptor (threshold 100 μM or less) and at rat MCH1 receptor (threshold 100 μM or less) were at most 0.1 µM, at most 100 µM and at most 100 µM, respectively. For the same compound, the IC50 in assay [1] (threshold 100 nM or less) was at most 0.1 µM; in assay [1] (threshold 100 μM or less), at most 100 µM.

Regarding `Cc1ccc(Oc2ccc(C(=O)NCCN3CCCC3)cc2NC(=O)Nc2c(C(C)C)cccc2C(C)C)cc1C` [Compound 37, 3-[3-(2,6-diisopropylphenyl)ureido]-4-(3,4-dimethylphenoxy)-N-(2-pyrrolidin-1-yl-ethyl)benzamide], the IC50 was at most 0.1 µM in assay [2] (threshold 100 nM or less), at most 100 µM in assay [2] (threshold 100 μM or less) and at most 100 µM in assay [1] (threshold 100 μM or less). Moreover, the inhibition constant (Ki) on human MCH receptor (threshold 100 μM or less) and on rat MCH1 receptor (threshold 100 μM or less) was at most 100 µM in each case.

Consider `Cc1ccc(Oc2ccc(CNCCN3CCCC3)cc2NC(=O)Nc2cccc(F)c2)cc1C` [Compound 64, 1-{2-(3,4-dimethylphenoxy)-5-[(2-pyrrolidin-1-yl-ethylamino)-methyl]phenyl}-3-(3-fluorophenyl)urea], for which the IC50 in assay [2] (threshold 100 μM or less) and in assay [1] (threshold 100 μM or less) was at most 100 µM in each case. Further, the Ki on human MCH receptor (threshold 100 μM or less) and at rat MCH1 receptor (threshold 100 μM or less) was at most 100 µM each time.

Consider `Cc1ccc(Oc2ccc(C(=O)NCCN3CCCC3)cc2NC(=O)Nc2ccc(C(C)C)cc2)cc1C` [Compound 34, 4-(3,4-dimethylphenoxy)-3-[3-(4-isopropylphenyl)ureido]-N-(2-pyrrolidin-1-yl-ethyl)benzamide], for which the figures for the IC50 in assay [2] (threshold 100 nM or less), in assay [2] (threshold 100 μM or less) and in assay [1] (threshold 100 μM or less) were at most 0.1 µM, at most 100 µM and at most 100 µM, respectively. Moreover, the Ki on human MCH receptor (threshold 100 nM or less) was at most 0.1 µM; at human MCH receptor (threshold 100 μM or less), at most 100 µM; at rat MCH1 receptor (threshold 100 μM or less), at most 100 µM.

As to `O=C(Nc1cccc(F)c1)Nc1cc(C(=O)NCCN2CCCC2)ccc1Oc1ccc(Cl)c(Cl)c1` [Compound 52, 4-(3,4-dichlorophenoxy)-3-[3-(3-fluorophenyl)ureido]-N-(2-pyrrolidin-1-yl-ethyl)benzamide], at human MCH receptor (threshold 100 μM or less), the Ki was at most 100 µM. The IC50 in assay [1] (threshold 100 nM or less) was at most 0.1 µM; in assay [1] (threshold 100 μM or less) it was at most 100 µM.

On to `Cc1cc(Oc2ccc(C(=O)NCCN3CCCC3)cc2NC(=O)Nc2cccc(F)c2)ccc1F` [Compound 51, 4-(4-fluoro-3-methylphenoxy)-3-[3-(3-fluorophenyl)ureido]-N-(2-pyrrolidin-1-yl-ethyl)benzamide], for which the Ki was at most 0.1 µM on human MCH receptor (threshold 100 nM or less), at most 100 µM on human MCH receptor (threshold 100 μM or less) and at most 100 µM on rat MCH1 receptor (threshold 100 μM or less). Moreover, the values for the IC50 in assay [1] (threshold 100 nM or less) and in assay [1] (threshold 100 μM or less) were at most 0.1 µM and at most 100 µM, respectively.

`Cc1ccc(Oc2ccc(C(=O)NCCN3CCCC3)cc2NC(=O)CCc2ccccc2)cc1C` [Compound 5, 4-[(3,4-dimethylphenyl)oxy]-3-[(3-phenylpropanoyl)amino]-N-(2-(1-pyrrolidinyl)ethyl)benzamide] had a half-maximal inhibitory concentration (IC50) in assay [2] (threshold 100 μM or less) of at most 100 µM. In addition, the Ki on human MCH receptor (threshold 100 μM or less) and at rat MCH1 receptor (threshold 100 μM or less) was at most 100 µM throughout.

As for `O=C(Nc1cccc(F)c1)Nc1cc(C(=O)NCCN2CCCC2)ccc1Oc1cccc(F)c1` [Compound 55, 4-(3-fluorophenoxy)-3-[3-(3-fluorophenyl)ureido]-N-(2-pyrrolidin-1-yl-ethyl)benzamide], the Ki on human MCH receptor (threshold 100 μM or less) and on rat MCH1 receptor (threshold 100 μM or less) was at most 100 µM in each case. Also, the IC50 is at most 0.1 µM in assay [1] (threshold 100 nM or less) and at most 100 µM in assay [1] (threshold 100 μM or less).

On to `Cc1cccc(Oc2ccc(C(=O)NCCN3CCCC3)cc2NC(=O)Nc2cccc(F)c2)c1` [Compound 57], for which the Ki on human MCH receptor (threshold 100 nM or less) was at most 0.1 µM; at human MCH receptor (threshold 100 μM or less) it was at most 100 µM; on rat MCH1 receptor (threshold 100 μM or less), at most 100 µM. Besides, the results for the IC50 in assay [1] (threshold 100 nM or less) and in assay [1] (threshold 100 μM or less) were at most 0.1 µM and at most 100 µM, respectively.

Usually Ki stands for the equilibrium dissociation constant of an inhibitor or competing ligand from its target. As usually defined, the IC50 is the concentration at which inhibition is half-maximal. A lower IC50 goes with inhibition by little substance.
